Consider 16 compounds from ChEMBL document CHEMBL5247605, “Discovery of potent indazole-based human glutaminyl cyclase (QC) inhibitors as Anti-Alzheimer's disease agents” (Eur J Med Chem, 2022).

Calls of active or inactive are those of the source. The calls are words filed in the database; no cut-off is given here.

Data set [1] is described as follows: Cytotoxicity against mouse HT-22 cells assessed as cell viability at 10 uM incubated for 18 hrs by MTT assay relative to control. The format is toxicity, cell-based. The note with it: read-out: Activity.
For the next data set, the target named is hERG (KCNH2) (Homo sapiens, UniProt Q12809). The experiment in a line: Inhibition of hERG at 10 uM by fluorescence polarization assay relative to control. In kind it is toxicity.
Data set [2] addresses Voltage-gated inwardly rectifying potassium channel KCNH2 (Homo sapiens, UniProt Q12809). The data set is described as follows: Inhibition of hERG by fluorescence polarization assay. In kind it is toxicity.
Data set [3] relates to Mus musculus. The data set is described as follows: Antialzheimer activity in human amyloid beta (3 to 40 residues) induced ICR mouse model assessed as inhibition of pyroglutamate form of amyloid-beta formation in brain at 10 mM, icv by sandwich ELISA relative to control. The format is functional.
Data set [4] has as its target Glutaminyl-peptide cyclotransferase (Mus musculus, UniProt Q9CYK2). The experiment in a line: Inhibition of mouse glutaminyl cyclase.
Data set [5] in a line: Metabolic stability in human liver microsomes assessed as compound remaining after 30 mins. In kind it is ADME, Microsome. The note with it: read-out: Stability.
Data set [6] is described as follows: Metabolic stability in mouse liver microsomes assessed as compound remaining after 30 mins. The format is ADME, Microsome. The settings on record: read-out: Stability.
Data set [7] is filed under the species Mus musculus. The settings on record: ICR, dose 10.0 mM, route icv.

Sequence of Voltage-gated inwardly rectifying potassium channel KCNH2 (Q12809 whole entry, the tested form may be a part): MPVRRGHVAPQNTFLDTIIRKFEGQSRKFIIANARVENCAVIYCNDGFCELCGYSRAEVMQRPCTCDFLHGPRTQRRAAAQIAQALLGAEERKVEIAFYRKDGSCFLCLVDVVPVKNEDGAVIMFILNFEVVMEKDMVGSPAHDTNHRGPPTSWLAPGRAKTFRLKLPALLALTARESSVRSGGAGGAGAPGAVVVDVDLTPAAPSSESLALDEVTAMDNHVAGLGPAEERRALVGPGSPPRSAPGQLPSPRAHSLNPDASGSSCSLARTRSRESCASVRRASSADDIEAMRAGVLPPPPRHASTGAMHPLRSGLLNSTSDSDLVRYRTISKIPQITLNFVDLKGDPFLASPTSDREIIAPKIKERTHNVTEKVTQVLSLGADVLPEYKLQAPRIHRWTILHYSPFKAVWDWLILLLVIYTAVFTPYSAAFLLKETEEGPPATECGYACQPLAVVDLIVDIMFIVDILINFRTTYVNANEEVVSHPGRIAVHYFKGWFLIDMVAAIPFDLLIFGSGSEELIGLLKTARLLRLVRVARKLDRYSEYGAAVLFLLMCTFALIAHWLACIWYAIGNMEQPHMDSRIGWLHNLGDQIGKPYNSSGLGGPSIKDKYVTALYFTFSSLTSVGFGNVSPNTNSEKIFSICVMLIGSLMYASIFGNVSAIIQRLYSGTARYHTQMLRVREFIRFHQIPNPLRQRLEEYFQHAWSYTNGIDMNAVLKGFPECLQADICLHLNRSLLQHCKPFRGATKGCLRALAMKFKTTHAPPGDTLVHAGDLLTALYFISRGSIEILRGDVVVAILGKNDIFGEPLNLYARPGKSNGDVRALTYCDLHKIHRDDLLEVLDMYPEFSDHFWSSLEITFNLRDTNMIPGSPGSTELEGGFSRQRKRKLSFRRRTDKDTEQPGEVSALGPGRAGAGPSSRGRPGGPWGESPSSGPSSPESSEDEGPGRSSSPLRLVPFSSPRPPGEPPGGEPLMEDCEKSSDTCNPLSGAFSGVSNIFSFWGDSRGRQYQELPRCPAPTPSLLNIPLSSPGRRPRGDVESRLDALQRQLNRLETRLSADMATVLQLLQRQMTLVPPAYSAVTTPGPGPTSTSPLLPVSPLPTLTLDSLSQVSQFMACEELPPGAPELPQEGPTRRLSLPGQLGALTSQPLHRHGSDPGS
Sequence of hERG (KCNH2) (Q12809 whole entry): as the sequence (Q12809 whole entry, the tested form may be a part) above
Sequence of Glutaminyl-peptide cyclotransferase (Q9CYK2 whole entry): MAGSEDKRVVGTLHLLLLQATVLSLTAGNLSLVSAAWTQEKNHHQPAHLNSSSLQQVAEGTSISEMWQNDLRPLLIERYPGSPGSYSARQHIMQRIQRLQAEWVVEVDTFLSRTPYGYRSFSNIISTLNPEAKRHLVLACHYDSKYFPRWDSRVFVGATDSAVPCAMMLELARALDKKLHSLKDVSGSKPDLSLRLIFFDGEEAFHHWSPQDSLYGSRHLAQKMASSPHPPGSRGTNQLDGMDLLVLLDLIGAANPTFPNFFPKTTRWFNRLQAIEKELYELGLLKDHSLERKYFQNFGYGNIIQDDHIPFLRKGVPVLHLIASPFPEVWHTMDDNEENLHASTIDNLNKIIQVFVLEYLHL

With `Cc1n[nH]c2cc(N(Cc3ccc(F)cc3)C(=O)NCCCn3cncc3C)ccc12`, the viability at 18 h, 10 µM in data set [1] amounted to 92.1%. The compound also came in with an inhibition at 10 µM against hERG (KCNH2) of 61.9%. Besides, the IC50 in data set [2] is over 10 µM; in data set [4] it was 0.0299 µM. In the data set on Mus musculus [3], the “inhibition (INH)” value came to 38.4%. Also, the remaining at 0.5 h in data set [5] came out at 40.1%; in data set [6], 7.2%.

As to `Cc1n[nH]c2cc(N(C(=O)NCCCn3cncc3C)C3CCCCC3)ccc12`, the viability at 18 h, 10 µM in data set [1] was 100%. The compound further gave an inhibition at 10 µM on hERG (KCNH2) of 47.6%. Moreover, the IC50 in data set [2] is under 10 µM; in data set [4], 0.0342 µM. Further, in the data set on Mus musculus [3], the “inhibition (INH)” value stood at 25%. Further, the remaining at 0.5 h amounted to 50.4% in data set [5] and 18.4% in data set [6].

In the case of `Cc1n[nH]c2cc(N(CC3CCCC3)C(=O)NCCCn3cncc3C)ccc12`, the viability at 18 h, 10 µM in data set [1] was found to be 96.9%. In addition, 10 µM produced 80.8% inhibition against hERG (KCNH2). In addition, the IC50 was over 10 µM in data set [2] and 0.0182 µM in data set [4]. For the same compound, in the data set with Mus musculus [3], the “inhibition (INH)” value came to 25.5%. The values for the remaining at 0.5 h in data set [5] and in data set [6] were 37% and 11.8%, respectively.

Turning to `Cc1cncn1CCCNC(=O)N(Cc1ccc(F)cc1)c1ccc2c(C)n(C)nc2c1`, the viability at 18 h, 10 µM in data set [1] amounted to 91.3%. At hERG (KCNH2), the inhibition at 10 µM came out at 52%. Further, in the data set on Mus musculus [3], the “inhibition (INH)” value was found to be 15%.

`Cc1nn(C)c2cc(N(C(=O)NCCCn3cncc3C)C3CCCCC3)ccc12`: in data set [1], the viability at 18 h, 10 µM was determined as 102%. For the same compound, the inhibition at 10 µM against hERG (KCNH2) was 52.2%. Moreover, the inhibition entry in the data set listed under Mus musculus [7] was “inactive”.

In the case of `Cc1n[nH]c2ccc(N(C(=O)NCCCn3cncc3C)C3CCCCC3)cc12`, the viability at 18 h, 10 µM in data set [1] turned out to be 100%. The compound further registered an inhibition at 10 µM against hERG (KCNH2) of 74.4%. The compound also yielded an IC50 in data set [2] of over 10 µM. Further, in the data set on Mus musculus [3], the “inhibition (INH)” value came out at 8%.

Take `Cc1nn(C)c2cc(N(Cc3ccc(F)cc3)C(=O)NCCCn3cncc3C)ccc12`: in data set [1], the viability at 18 h, 10 µM was 102%. Further, at hERG (KCNH2), the inhibition at 10 µM is 56.5%. For the same compound, the inhibition result in the data set listed under Mus musculus [7] was “inactive”.

As for `CCCOc1ccc([C@@H]2CNC(=O)N2c2ccc3nc[nH]c3c2)cc1`, in the data set on Mus musculus [3], the “inhibition (INH)” value was determined as 17.1%.

On to `Cc1nn(C)c2ccc(N(Cc3cccnc3)C(=O)NCCCn3cncc3C)cc12`, for which the viability at 18 h, 10 µM in data set [1] was 98.3%. On hERG (KCNH2), this compound gave an inhibition at 10 µM of 44.1%. The same compound registered an IC50 in data set [2] of under 10 µM. Also, the inhibition result in the data set filed under Mus musculus [7] was “inactive”.

For the compound `Cc1nn(C)c2ccc(NC(=O)NCCCn3cncc3C)cc12`, the viability at 18 h, 10 µM in data set [1] was determined as 104%. Moreover, at hERG (KCNH2), the inhibition at 10 µM was determined as 54.4%. For the same compound, the inhibition entry in the data set filed under Mus musculus [7] is “inactive”.

Turning to `Cc1nn(C)c2ccc(N(CC3CCCC3)C(=O)NCCCn3cncc3C)cc12`, the viability at 18 h, 10 µM in data set [1] amounted to 104%. The same compound showed an inhibition at 10 µM on hERG (KCNH2) of 81.5%. The IC50 in data set [2] was over 10 µM. For the same compound, the inhibition result in the data set filed under Mus musculus [7] is “inactive”.

As for `Cc1nn(C)c2cc(N(CC3CCCC3)C(=O)NCCCn3cncc3C)ccc12`, the viability at 18 h, 10 µM in data set [1] was found to be 107%. This compound also had an inhibition at 10 µM against hERG (KCNH2) of 70.3%. In addition, the IC50 in data set [2] is over 10 µM. Further, in the data set listed under Mus musculus [7], the inhibition result was “inactive”.

On to `Cc1nn(CCCCc2ccnc(N)c2)c2ccc(NC(=O)NCCCn3cncc3C)cc12`, for which, in data set [1], the viability at 18 h, 10 µM is 98.7%. For the same compound, at hERG (KCNH2), testing at 10 µM gave an inhibition of 50.3%. The “inhibition (INH)” value in the data set on Mus musculus [3] amounted to 7.7%.

Turning to `Cc1n[nH]c2ccc(N(Cc3ccc(F)cc3)C(=O)NCCCn3cncc3C)cc12`, in data set [1], the viability at 18 h, 10 µM came out at 97.2%. The compound further gave an inhibition at 10 µM on hERG (KCNH2) of 80.6%. Further, the IC50 in data set [2] was over 10 µM. In addition, the inhibition result in the data set filed under Mus musculus [7] is “inactive”.

In the case of `Cc1nn(C)c2ccc(N(C(=O)NCCCn3cncc3C)C3CCCCC3)cc12`, the viability at 18 h, 10 µM in data set [1] was determined as 99.1%. The same compound registered an inhibition at 10 µM on hERG (KCNH2) of 58.1%. In data set [2], the IC50 is over 10 µM. Further, in the data set listed under Mus musculus [7], the inhibition result was “inactive”.

Take `Cc1nn(C)c2ccc(N(Cc3ccc(F)cc3)C(=O)NCCCn3cncc3C)cc12`: in data set [1], the viability at 18 h, 10 µM was found to be 108%. In addition, testing at 10 µM at hERG (KCNH2) gave an inhibition of 63.6%. In addition, the IC50 in data set [2] was over 10 µM. For the same compound, in the data set on Mus musculus [3], the “inhibition (INH)” value was 7%.
